According to US20250092401A1, “COMBINATION THERAPY FOR TREATING HEPATITIS B VIRUS INFECTIONS” (GLAXOSMITHKLINE INTELLECTUAL PROPERTY DEVELOPMENT LIMITED, priority 2022, published 2025):
In brackets after ≈: the same amount, converted by molar mass. Several values for one entry are separate records, joined by “and”; a condition that tells them apart may be missing. Equal entries are not always repeated. Where two headings read alike, the source gives them in different places.

Tests used:
[1] = test system: HBV HBsAg; assay: HBsAg reduction in HBV infected primary human hepatocytes (ELISA); format: cell-based; details: Hepatitis B virus, Hepatocyte
Procedure: The potency (pIC50) of Compound A for reduction of HBV HBsAg was investigated in primary human hepatocytes (PHH) from three donors. HBV infected PHH samples were treated with Compound A for 21 days and secreted HBsAg was measured using an ELISA assay to determine the % inhibition and average potency of the replicates (two per PHH donor).
(§1) The antiviral activity of Compound A was evaluated in in vitro HBV systems: (1) HepAD38, a hepatoma cell line with inducible expression of HBV, (2) primary human hepatocytes (PHHs) infected with HBV, and in vivo in infected male C57BL/6 mice with AAV-HBV. Overall there is a correlation between in vitro potency (HepAD38 & PHHs) and AAV-HBV in vivo model HBsAg inhibition.

[2] = test system: primary human hepatocytes (PHH); assay: Visual examination for cell toxicity in PHH; format: cell-based; details: HBV infected PHH, 21 days treatment
[3] = Toxicity evaluation incl. nerve toxicity, 28 days of dosing, rats; format: in vivo; details: 28 days of dosing followed by 6 week off dose period
Procedure: (§2) Studies were conducted to evaluate toxicity, including additional endpoints investigating nerve toxicity of Compound A after 28 days of dosing followed by a 6 week off dose period in rats and monkeys.

[4] = Toxicity evaluation incl. nerve toxicity, 28 days of dosing, monkeys; format: in vivo; details: 28 days of dosing followed by 6 week off dose period
Procedure: as §2

[5] = test system: HBV HBsAg; assay: HBsAg reduction in HepAD38 cell line (HBsAg ELISA); format: cell-based, hepatitis B virus (HBV); details: Hepatitis B virus; for EC50: HePAD38, 168 h, read-out: HBsAg (EC50)
Procedure: HepAD38 cells were maintained in collagen-coated flasks in cell culture medium (DMEM/F12 containing 10% fetal bovine serum (FBS), GlutaMax-1, penicillin/streptomycin, non-essential amino acids, Na pyruvate, 250 μg/mL geneticin, and 1 μg/mL doxycycline). Compound solutions were prepared in DMSO and compounds were serially diluted for final concentrations of 4000, 1000, 250, 62.5, 15.6, 3.91, 0.977, 0.244, 0.061, and 0.015 nM. The cells were then trypsinized and the cells were plated at 10,000 cells per well. Plates were incubated at 37° C., 5% CO2 for 4 days. Media was replaced with new media with compound treatment. The plates were then incubated at 37° C., 5% CO2 for an additional 3 days for a total treatment time of 7 days. For antiviral response, HBsAg was measured using the HBsAg ELISA kit (International Immuno-diagnostics) with instructions provided. 100 μL of cell media samples was used for ELISA. The absorbance was read on the SPECTRAMAX 384 plate reader (Molecular Devices) at 450 nm. For cell toxicity, the cells were used for CELLTITER-GLO Luminescent Cell Viability Assay reagent (Promega). The luminescence was read on Envision Multilabel Reader (Perkin Elmer). The data was analyzed compared to the DMSO control.
% inhibition=(1−(unknown/high control))*100
The average % inhibition values from duplicate assay plates were then plotted in GraphPad Prism to determine one EC value: Four-parameter logistic curve with equation Y=Bottom+(Top-Bottom)/(1+10^((Log EC50−X)*Hillslope))
as §1

[6] = molecular target: PAPD5 (Homo sapiens, UniProt Q8NDF8); assay: PAPD5 A15 RNA SPA biochemical assay
Sequence of PAPD5 (Q8NDF8 whole entry): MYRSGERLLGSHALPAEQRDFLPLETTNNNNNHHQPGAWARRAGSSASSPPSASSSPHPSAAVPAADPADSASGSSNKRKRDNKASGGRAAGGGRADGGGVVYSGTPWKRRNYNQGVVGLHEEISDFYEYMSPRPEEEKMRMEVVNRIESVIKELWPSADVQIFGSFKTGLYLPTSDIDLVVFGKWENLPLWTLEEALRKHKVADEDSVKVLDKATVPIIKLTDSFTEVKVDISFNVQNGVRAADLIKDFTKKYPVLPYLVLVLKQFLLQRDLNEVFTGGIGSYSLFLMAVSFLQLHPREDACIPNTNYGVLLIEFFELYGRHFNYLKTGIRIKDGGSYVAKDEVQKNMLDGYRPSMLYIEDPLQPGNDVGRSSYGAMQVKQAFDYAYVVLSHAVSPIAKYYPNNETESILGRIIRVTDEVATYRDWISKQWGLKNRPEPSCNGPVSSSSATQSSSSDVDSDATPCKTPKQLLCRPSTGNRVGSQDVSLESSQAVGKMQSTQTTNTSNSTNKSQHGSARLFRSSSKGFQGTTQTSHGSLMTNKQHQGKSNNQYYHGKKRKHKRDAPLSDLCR
Procedure: (§3) Dose-response studies were conducted for Compound A and RG7834 in the PAPD5 and PAPD7 A15 RNA SPA formats. Four different batches of Compound A and two different batches of RG7834 were used in both assays. Reactions contained 5 uM ATP, 0.0025 uCi/uL 3H-ATP, 50 nM A15 RNA, 10 nM enzyme in assay buffer (20 mM Tris 7.5, 3 mM CHAPS, 0.05% dBSA, 10 mM MgCl2, 1 mM DTT, 25 mM KCl). Reaction product was detected using SPA bead mix, final concentrations were 1 mg/mL PEI-PS, 1.25 mM ATP, 11.25 mM EDTA. End point signal detection correlated with slopes of reaction time courses. Curve fitting was performed using 4-parameter fitting in ActivityBase software.

[7] = molecular target: PAPD7 (Homo sapiens, UniProt Q5XG87); assay: PAPD7 A15 RNA SPA biochemical assay; details: 10 nM enzyme, 5 uM ATP, 50 nM A15 RNA; read-out: average pIC50 PAPD7 (converted)
Sequence of PAPD7 (Q5XG87 whole entry): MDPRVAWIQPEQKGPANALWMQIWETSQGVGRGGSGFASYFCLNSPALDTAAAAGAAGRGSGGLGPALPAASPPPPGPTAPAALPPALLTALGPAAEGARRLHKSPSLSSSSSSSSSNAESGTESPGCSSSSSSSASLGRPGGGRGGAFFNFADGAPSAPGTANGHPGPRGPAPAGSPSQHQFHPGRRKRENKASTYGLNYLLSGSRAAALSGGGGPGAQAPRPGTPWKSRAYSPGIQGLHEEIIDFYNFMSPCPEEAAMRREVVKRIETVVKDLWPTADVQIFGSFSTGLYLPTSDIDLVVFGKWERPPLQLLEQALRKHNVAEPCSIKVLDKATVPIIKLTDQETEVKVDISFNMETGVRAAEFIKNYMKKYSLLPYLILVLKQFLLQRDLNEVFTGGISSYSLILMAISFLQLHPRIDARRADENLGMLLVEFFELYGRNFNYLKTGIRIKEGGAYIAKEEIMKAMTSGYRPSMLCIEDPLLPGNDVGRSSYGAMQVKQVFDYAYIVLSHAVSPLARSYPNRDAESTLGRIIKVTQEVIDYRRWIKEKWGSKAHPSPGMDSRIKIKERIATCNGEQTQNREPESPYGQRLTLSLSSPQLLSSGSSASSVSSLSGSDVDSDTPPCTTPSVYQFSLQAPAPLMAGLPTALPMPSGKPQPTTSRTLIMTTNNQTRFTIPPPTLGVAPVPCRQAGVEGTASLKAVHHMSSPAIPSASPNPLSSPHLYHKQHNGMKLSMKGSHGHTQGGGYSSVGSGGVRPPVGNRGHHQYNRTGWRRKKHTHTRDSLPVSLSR
Procedure: as §3

[8] = test system: AAV-HBV; assay: AAV-HBV mouse model, mono-treatment; format: in vivo, male C57BL/6 mice; details: for HBsAg reduction: within one week of treatment, sustained
Procedure: After 28 days of infection with AAV-HBV, mono-treatment of the infected male C57BL/6 mice with either Compound A or bepirovirsen was initiated. […] HBsAg reduction for the 3 and 30 mg/kg Compound A dose groups was close to 1 log and 1 log, respectively, within one week of treatment and reduction levels were sustained throughout the duration of the treatment period. […] The maximum observed reduction in HBeAg was 0.5 log at 30 mg/kg Compound A. There was a small reduction (0.26 to 0.40 log) in HBV DNA at the 3 and 30 mg/kg Compound A dose levels when compared to the combined vehicle group. […]

[9] = test system: AAV-HBV; assay: AAV-HBV mouse model, sequential treatment; format: in vivo, male C57BL/6 mice; details: 30 mg/kg Compound A alone
From the text: After 35 days of infection with AAV-HBV, sequential treatment of the infected male C57BL/6 mice began first with Compound A followed by bepirovirsen.
[…], reductions in HBsAg was observed, reaching a maximum reduction of over 1 log and nearly 2 logs, respectively, by the second week. This reduction was statistically significant when compared to the combined vehicle group.

[10] = preclinical; terminated in Phase 1 clinical trials due to toxicity; cited from earlier work

For `COCCCOc1cc2c(nc1Cl)-c1cc(=O)c(C(=O)O)cn1[C@H]1[C@@H]2CCC1(C)C` [Compound A], the IC50 [1] was 0.00095 µg/mL and 2.19 nM, the IC50 ([1]; 504 h, read-out: average pIC50 for reduction of HBV HBsAg (converted)) was 0.832 nM and the IC90 ([1]; read-out: Calculated IC90) was 8.55 ng/mL (≈ 0.0198 µM). The “cell toxicity (visual examination)” value [2] was “no detected sign of cell toxicity”, the “no adverse effect dose” value [3] was “No adverse effect doses were established” and the “no adverse effect dose” value [4] was “No adverse effect doses were established”. The IC50 ([5]; HePAD38) was 0.00056 µg/mL and 1.3 nM, the EC50 [5] was 0.3 nM and the IC90 ([5]; HePAD38, read-out: Calculated IC90) was 5.04 ng/mL (≈ 0.0116 µM). For the same compound, the IC50 ([6]; 10 nM enzyme, 5 uM ATP, 50 nM A15 RNA, read-out: average pIC50 PAPD5 (converted)) was 12.6 nM, the “more potent than RG7834 by” value ([6]; PAPD5 and PAPD7 assays (FIG. 2)) was over 0.5 log and the IC50 [7] was 20 nM. The “reduction in HBsAg” value ([8]; Compound A 0.3 mg/kg, over the course of treatment) was “minimal reduction in HBsAg”, the “HBsAg reduction compared to the combined vehicle group” value ([8]; Compound A 3 mg/kg or 30 mg/kg) was “statistically significant HBsAg reduction” and the HBsAg reduction ([8]; Compound A 3 mg/kg) was about 1 log. For the same compound, the “maximum observed reduction in HBeAg” value ([8]; Compound A 30 mg/kg) was 0.5 log, the HBsAg reduction ([8]; Compound A 30 mg/kg) was 1 log and the HBsAg levels off-treatment ([8]; Compound A, following one week off-treatment) was “rebounded to baseline”. The IC50 ([8]; Mus musculus) was 5.8e-05 µg/mL and 0.13 nM, the IC90 ([8]; Mus musculus, read-out: Calculated IC90) was 0.522 ng/mL (≈ 0.00121 µM) and the “effect on levels of HBeAg” value ([8]; during treatment with Compound A, stabilized after day 7, rebounded within one week after end) was “dose dependent reduction”. The HBsAg off-treatment ([9]; within one week off-treatment) was “rebounded to baseline” and the “reduction in HBsAg” value ([9]; within one week, stable up to 28 days, statistically significant) was about 1 log.

`Cc1cc2c(cc1OCC1COC1)CC1(CCC1)n1cc(C(=O)O)c(=O)cc1-2` [Compound B, reference compound] showed an EC50 [5] of 3 nM.

For `COCCCOc1cc2c(cc1OC)-c1cc(=O)c(C(=O)O)cn1[C@H](C(C)C)C2` [RG7834, reference compound], the EC50 [5] is given as 2 nM and the “no adverse effect dose” value [10] is given as “no adverse effect dose could not be established”.
